{"source": "paper PMC7829762", "about": "“Characterization of a Novel Laccase LAC-Yang1 from White-Rot Fungus Pleurotus ostreatus Strain Yang1 with a Strong Ability to Degrade and Detoxify Chlorophenols” (Molecules, 2021)", "system": "T1, LAC-Yang1", "T1 construct": "native enzyme purified from culture supernatant (Cu2+ and syringic acid induced; ammonium sulfate, DEAE, Phenyl-6FF); only laccase band secreted by this strain", "test": "absorbance assay, Michaelis-Menten non-linear regression", "format": "biochemical, Pleurotus ostreatus", "conditions": "50 mM acetate buffer pH 5.0, 30 °C, free enzyme", "source_text": "absorbance assay, Michaelis-Menten non-linear regression on LAC-Yang1"}
{"molecule": "2,6-Dimethylphenol [2,6-DMP]", "values": [{"measurement": "Km", "setting": "470 nm, compound identity doubtful: paper spells 2,6-DMP as 2,6-Dimethylphenol, but 470 nm read-out is usual for 2,6-dimethoxyphenol", "result": "120 ± 30", "unit": "µM"}]}
{"molecule": "CCn1c(=NN=c2sc3cc(S(=O)(=O)O)ccc3n2CC)sc2cc(S(=O)(=O)O)ccc21", "note": "[ABTS, 2,2′-azino-bis-(3-ethylbenzothiazoline-6-sulfonic acid)]", "values": [{"measurement": "Km", "setting": "420 nm", "result": "150 ± 50", "unit": "µM"}]}
{"molecule": "COc1ccccc1O", "note": "[guaiacol]", "values": [{"measurement": "Km", "setting": "465 nm", "result": "810 ± 150", "unit": "µM"}]}
